From patent US20250213581A1, “COMBINATION THERAPY OF A PI3K INHIBITOR AND KRAS INHIBITOR AND METHODS OF USE THEREOF” (Totus Medicines Inc., priority 2022, published 2025)
Read-outs that look alike come from different tables or passages of the source.

What was measured:
[1] = system: NCI-H23 (Lung); test: Cell proliferation assay (CellTiter-Glo, 3 days), single agent; format: cell-based
Experimental: (§1) Two duplicate plates were set up.
(§2) At day 0, 10 μL culture medium to each well for T0 reading. […] Compound I was diluted and 10 μL of each 10× compound I from working solutions for a concentration ranging from 10 μM to about 0.005 μM. Cisplatin was diluted to about 3.33 mM to about 150 nM.
(§3) IC50's were determined for each cell line.

[2] = system: Calu-1 (Lung); test: as above; format: cell-based
Experimental: as §1, §2, §3

[3] = system: NCI-H2122 (Lung); test: as above; format: cell-based
Experimental: as §1, §2, §3

[4] = system: SW756 (Cervix); test: as above; format: cell-based; conditions: 3 days treatment; read-out: Absolute IC50
Experimental: as §1, §2, §3

[5] = system: HCC44 (Lung); test: as above; format: cell-based
Experimental: as §1, §2, §3

[6] = system: SW837 (Rectum); test: as above; format: cell-based
Experimental: as §1, §2, §3

[7] = system: MIA PaCa-2 (Pancreas); test: as above; format: cell-based
Experimental: as §1, §2, §3

[8] = system: SW1463 (rectum); test: as above; format: cell-based; conditions: 3 days treatment; read-out: Absolute IC50
Experimental: as §1, §2, §3

[9] = system: KYSE-410 (HN/Esophagus); test: as above; format: cell-based; conditions: 3 days treatment; read-out: Absolute IC50
Experimental: as §1, §2, §3

[10] = system: NCI-H1373 (Lung); test: as above; format: cell-based
Experimental: as §1, §2, §3

[11] = system: UM-UC-3 (bladder); test: as above; format: cell-based
Experimental: as §1, §2, §3

[12] = system: NCI-H358 (Lung); test: as above; format: cell-based; conditions: 3 days treatment
Experimental: as §1, §2, §3

[13] = system: NCI-H1792 (Lung); test: as above; format: cell-based
Experimental: as §1, §2, §3

[14] = system: UM-UC-3 (bladder) cell lines; test: Cell proliferation assay and synergy analysis, Compound I with Adagrasib; conditions: Homo sapiens, UMUC3, 72 h, read-out: Ave Inhibition rate (%)
Source text: (§4) The cell lines tested included: UM-UC-3 (bladder), KYSE-410 (HN/Esophagus), SW1463 (rectum), Calu-1 (Lung), NCI-H358 (Lung), SW837 (Rectum), SW756 (Cervix), NCI-H2122 (Lung), NCI-H1373 (Lung), NCI-H1792 (Lung), NCI-H23 (Lung), MIA PaCa-2 (Pancreas), and HCC44 (Lung).
(§5) Cells were recovered and maintained in appropriate culture media. The cells were harvested respectively during the logarithmic growth period. The cells were then resuspended and counted using a Vi cell counter (The cell viability was measured by trypan blue exclusion assay). The cells were then diluted and 80 μL of the cell suspensions were added to 96-well plates according to plate map with final cell density. Two duplicate plates were set up. One is for day 0 reading (T0) and the other was cultured in the incubator for reading at the end point. The incubated plates were incubated overnight in humidified incubator at 37° C. with 5% CO2.
(§6) At day 0, 20 μL of culture medium was added to each well for T0 reading. 10 μL of culture medium was added to each well for day 0 (T0) reading. Then, 50 μl of CellTiter-Glo® Reagent was added to each well. The contents were then mixed for 2 minutes on an orbital shaker to facilitate cell lysis. The plates were then allowed to incubate at room temperature for 10 minutes to stabilize luminescent signal. Luminescence was then recorded using an EnVision Multi Label Reader. […] The screening plates were then placed back into the incubator for the appropriate treatment time (3 days).
(§7) For the endpoint CTG reading, 50 μL of CellTiter-Glo® Reagent was added to each well. The contents were then mixed for 2 minutes on an orbital shaker to facilitate cell lysis. The plate was allowed to incubate at room temperature for 10 minutes to stabilize luminescent signal. Luminescence was then recorded using an EnVision Multi Label Reader. The surviving rate (%)=(LumTest article−LumMedium control)/(LumNone treated−LumMedium control)×100%.
(§8) A score higher than 5 indicates synergy, and a score less than −5 indicates antagonism.

[15] = biological target: T1, PI3K (Homo sapiens, UniProt P42336); test: NanoBRET screening (binding assay) in transfected HEK293 cells; conditions: overnight incubation, washout
T1 construct: expressed in transfected cells; host or cells: HEK293 (Gibco 293-H), transient transfection with FuGENE HD
T1 sequence (P42336 whole entry): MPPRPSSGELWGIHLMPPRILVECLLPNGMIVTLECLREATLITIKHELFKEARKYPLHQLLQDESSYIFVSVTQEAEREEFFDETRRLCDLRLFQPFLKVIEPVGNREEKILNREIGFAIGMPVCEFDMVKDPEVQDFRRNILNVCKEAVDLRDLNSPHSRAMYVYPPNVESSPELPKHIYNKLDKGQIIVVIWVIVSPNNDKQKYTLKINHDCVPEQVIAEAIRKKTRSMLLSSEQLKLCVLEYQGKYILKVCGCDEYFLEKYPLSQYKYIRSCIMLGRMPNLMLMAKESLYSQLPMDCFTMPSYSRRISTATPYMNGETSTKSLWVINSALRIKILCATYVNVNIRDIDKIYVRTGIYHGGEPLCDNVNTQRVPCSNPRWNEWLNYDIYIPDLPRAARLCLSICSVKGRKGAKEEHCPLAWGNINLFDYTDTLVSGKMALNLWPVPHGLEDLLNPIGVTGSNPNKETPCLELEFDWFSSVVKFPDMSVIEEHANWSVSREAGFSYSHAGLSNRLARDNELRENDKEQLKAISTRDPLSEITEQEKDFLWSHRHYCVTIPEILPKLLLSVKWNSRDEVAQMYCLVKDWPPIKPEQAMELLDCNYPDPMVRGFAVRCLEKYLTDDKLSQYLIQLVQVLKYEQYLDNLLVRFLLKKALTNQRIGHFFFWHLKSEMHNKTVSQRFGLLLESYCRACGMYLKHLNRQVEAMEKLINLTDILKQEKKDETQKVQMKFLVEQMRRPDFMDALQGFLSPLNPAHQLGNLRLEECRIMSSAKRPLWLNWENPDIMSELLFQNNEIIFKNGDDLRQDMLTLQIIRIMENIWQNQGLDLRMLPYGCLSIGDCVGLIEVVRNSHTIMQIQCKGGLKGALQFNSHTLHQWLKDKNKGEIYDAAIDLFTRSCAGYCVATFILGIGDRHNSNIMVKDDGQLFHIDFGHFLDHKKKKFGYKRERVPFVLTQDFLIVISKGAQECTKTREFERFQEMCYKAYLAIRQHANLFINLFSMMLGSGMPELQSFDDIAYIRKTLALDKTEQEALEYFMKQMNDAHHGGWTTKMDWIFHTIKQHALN
T1 sequence (P27986 whole entry partner): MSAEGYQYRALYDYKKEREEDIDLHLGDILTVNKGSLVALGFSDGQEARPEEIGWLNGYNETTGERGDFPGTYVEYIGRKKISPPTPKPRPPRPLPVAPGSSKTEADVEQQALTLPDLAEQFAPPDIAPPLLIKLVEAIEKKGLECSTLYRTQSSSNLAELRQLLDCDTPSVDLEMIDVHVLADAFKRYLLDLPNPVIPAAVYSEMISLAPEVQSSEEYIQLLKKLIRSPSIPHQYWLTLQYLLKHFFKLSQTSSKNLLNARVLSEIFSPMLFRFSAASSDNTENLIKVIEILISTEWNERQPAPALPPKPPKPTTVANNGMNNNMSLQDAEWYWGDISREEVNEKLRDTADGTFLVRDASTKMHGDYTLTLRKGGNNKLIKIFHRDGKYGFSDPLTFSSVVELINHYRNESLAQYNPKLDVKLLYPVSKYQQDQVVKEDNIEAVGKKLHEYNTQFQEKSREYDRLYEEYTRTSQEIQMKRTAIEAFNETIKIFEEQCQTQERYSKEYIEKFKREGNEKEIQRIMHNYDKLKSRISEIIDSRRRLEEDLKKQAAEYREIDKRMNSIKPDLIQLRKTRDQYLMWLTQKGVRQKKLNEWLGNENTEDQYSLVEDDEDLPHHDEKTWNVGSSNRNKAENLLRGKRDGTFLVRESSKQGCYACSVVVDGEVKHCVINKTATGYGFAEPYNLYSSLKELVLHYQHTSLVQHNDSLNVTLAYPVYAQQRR
Experimental: Human embryonic kidney 293-H (HEK 293, Gibco 293-H, #11631017) cell lines were maintained in Dulbecco's Modified Eagle Medium, high glucose, pyruvate (DMEM, Gibco, #11995065) supplemented with 10% fetal bovine serum (FBS, Gibco, #10082147) and 1× penicillin-streptomycin (100× solution, Gibco, #15140148) at 37° C. and 5% CO2 in a water-saturated incubator. […] Opti-MEM media supplemented with 10% fetal bovine serum (Opti-MEM I reduced serum media, no phenol red, Gibco, #11058021) was used for culturing cells overnight for NanoBRET readout experiments.
HEK293 cells were cultivated appropriately prior to assay. The medium from cell flask was removed via aspiration, washed 1× with PBS followed by aspiration, trypsinized, and cells were allowed to dissociate from the flask. Trypsin was neutralized using growth medium and cells were pelleted via centrifugation at 200×g for 5 minutes. The medium was aspirated and the cells were resuspended into a single cell suspension using Opti-MEM I supplemented with 10% FBS. The cell density was adjusted to 2×10^5/mL in Opti-MEM I supplemented with 10% FBS in a sterile, conical tube. […]
A 10 μg/mL solution of DNA was prepared in Opti-MEM without serum. […] The plate on plate reader is read every hour for the next 6 hours.

[16] = system: Calu-1 (Lung) cell lines; test: Cell proliferation assay and synergy analysis, Compound I with Adagrasib; conditions: Homo sapiens, Calu-1, 72 h, read-out: Ave of Inhibition (%)
Source text: as §4, §5, §6, §7, §8

[17] = system: SW1463 (rectum) cell lines; test: as above; conditions: Homo sapiens, SW1463, 72 h, read-out: Ave Inhibition (%)
Source text: as §4, §5, §6, §7, §8

[18] = system: SW837 (Rectum) cell lines; test: as above; conditions: Homo sapiens, SW837, 72 h, read-out: Ave of Inhibition (%)
Source text: as §4, §5, §6, §7, §8

[19] = system: KYSE-410 (HN/Esophagus) cell lines; test: as above; conditions: Homo sapiens, KYSE-410, 72 h, read-out: Ave inhibition (%)
Source text: as §4, §5, §6, §7, §8

[20] = system: NCI-H358 (Lung) cell lines; test: as above; conditions: Homo sapiens, NCI-H358, 72 h, read-out: Ave of Inhibition (%)
Source text: as §4, §5, §6, §7, §8

[21] = system: SW756 (Cervix) cell lines; test: as above; conditions: Homo sapiens, SW756, 72 h, read-out: Ave Inhibition (%)
Source text: as §4, §5, §6, §7, §8

[22] = 3 days treatment, read-out: Absolute IC50
[23] = Homo sapiens, NCI-H23, read-out: Average Inhibition (%) (N = 3)
[24] = Homo sapiens, NCI-H2122, read-out: Average Inhibition (%) (N = 3)
[25] = Homo sapiens, HCC44, read-out: Average Inhibition (%) (N = 3)
[26] = Homo sapiens, MIA PaCa-2, read-out: Average Inhibition (%) (N = 3)
[27] = Homo sapiens, NCI-H1373, read-out: Average Inhibition (%) (N = 3)
[28] = Homo sapiens, NCI-H1792, read-out: Average Inhibition (%) (N = 3)

## N.N.[Cl][Pt][Cl] [Cisplatin, reference compound]
[1]; [22]
  IC50: 3.58 µM
[2]; [22]
  IC50: 10.2 µM
[3]; [22]
  IC50: 17.8 µM
[4]
  IC50: 10.3 µM
[5]; [22]
  IC50: 7.96 µM
[6]; [22]
  IC50: 42.5 µM
[7]; [22]
  IC50: 7.03 µM
[8]
  IC50: 12.2 µM
[9]
  IC50: 15.8 µM
[10]; [22]
  IC50: 8.72 µM
[11]; [22]
  IC50: 1.86 µM
[12]; read-out: Absolute IC50
  IC50: 12.5 µM
[13]; [22]
  IC50: 4.88 µM

## C=CC(=O)NCC(=O)N1CCN(Cc2cc3c(N4CCOCC4)nc(-c4cnc(NC(=O)OC)cc4C(F)(F)F)nn3c2)CC1 [Compound I, methyl (5-(6-((4-(acryloylglycyl)piperazin-1-yl)methyl)-4-morpholinopyrrolo[2,1-f][1,2,4]triazin-2-yl)-4-(trifluoromethyl)pyridin-2-yl)carbamate]
[14]
  inhibition at 0.0046 µM: -5.05%
  inhibition at 0.0137 µM: -5.07%
  inhibition at 0.0412 µM: -7.94%
  inhibition at 0.1235 µM: -4.04%
  inhibition at 0.3704 µM: 0.18%
  inhibition at 1.1111 µM: 9.37%
  inhibition at 3.3333 µM: 27.4%
  inhibition at 10 µM: 44.8%
[15]
  inhibition of the PI3K target: greater than 80%
[16]
  inhibition at 0.0046 µM: -8.39%
  inhibition at 0.0137 µM: -5.3%
  inhibition at 0.0412 µM: -3.3%
  inhibition at 0.1235 µM: -0.27%
  inhibition at 0.3704 µM: 3.9%
  inhibition at 1.1111 µM: 31%
  inhibition at 3.3333 µM: 11.6%
  inhibition at 10 µM: 22.6%
[17]
  inhibition at 0.0046 µM: 4.57%
  inhibition at 0.0137 µM: 2.64%
  inhibition at 0.0412 µM: 6.01%
  inhibition at 0.1235 µM: 15.7%
  inhibition at 0.3704 µM: 21.8%
  inhibition at 1.1111 µM: 29.5%
  inhibition at 3.3333 µM: 40.4%
  inhibition at 10 µM: 48.4%
[18]
  inhibition at 0.0046 µM: -3.3%
  inhibition at 0.0137 µM: -0.64%
  inhibition at 0.0412 µM: 8.04%
  inhibition at 0.1235 µM: 9.71%
  inhibition at 0.3704 µM: 15.9%
  inhibition at 1.1111 µM: 19%
  inhibition at 3.3333 µM: 21.8%
  inhibition at 10 µM: 27.5%
[19]
  inhibition at 0.0046 µM: -1.36%
  inhibition at 0.0137 µM: 3.14%
  inhibition at 0.0412 µM: 9.47%
  inhibition at 0.1235 µM: 17.1%
  inhibition at 0.3704 µM: 29.4%
  inhibition at 1.1111 µM: 50.5%
  inhibition at 3.3333 µM: 65.8%
  inhibition at 10 µM: 71.3%
[20]
  inhibition at 0.0046 µM: 0.76%
  inhibition at 0.0137 µM: 4.1%
  inhibition at 0.0412 µM: 10.8%
  inhibition at 0.1235 µM: 17.1%
  inhibition at 0.3704 µM: 25%
  inhibition at 1.1111 µM: 38.9%
  inhibition at 3.3333 µM: 50.4%
  inhibition at 10 µM: 61%
[21]
  inhibition at 0.0046 µM: -1.03%
  inhibition at 0.0137 µM: -0.86%
  inhibition at 0.0412 µM: 1.55%
  inhibition at 0.1235 µM: 4.83%
  inhibition at 0.3704 µM: 8.26%
  inhibition at 1.1111 µM: 14.3%
  inhibition at 3.3333 µM: 21.6%
  inhibition at 10 µM: 34.6%
[1]; Homo sapiens, NCI-H23, 72 h, read-out: Absolute IC50 (μM)
  IC50: > 10 µM
[1]; [23]
  inhibition at 0.0046 µM: 6.06%
  inhibition at 0.0137 µM: 7.11%
  inhibition at 0.0412 µM: 12.1%
  inhibition at 0.1235 µM: 15.4%
  inhibition at 0.3704 µM: 14.9%
  inhibition at 1.1111 µM: 23.4%
  inhibition at 3.3333 µM: 28.6%
  inhibition at 10 µM: 37.2%
[2]; Homo sapiens, Calu-1, 72 h, read-out: Absolute IC50 (μM)
  IC50: > 10 µM
[3]; [24]
  inhibition at 0.0046 µM: -2.13%
  inhibition at 0.0137 µM: 2.34%
  inhibition at 0.0412 µM: 13.6%
  inhibition at 0.1235 µM: 24%
  inhibition at 0.3704 µM: 36.5%
  inhibition at 1.1111 µM: 45.6%
  inhibition at 3.3333 µM: 52.5%
  inhibition at 10 µM: 63.2%
[5]; [25]
  inhibition at 0.0046 µM: -3.82%
  inhibition at 0.0137 µM: -4.27%
  inhibition at 0.0412 µM: -1.38%
  inhibition at 0.1235 µM: 1.74%
  inhibition at 0.3704 µM: 10.1%
  inhibition at 1.1111 µM: 19.7%
  inhibition at 3.3333 µM: 33.1%
  inhibition at 10 µM: 43.7%
[6]; Homo sapiens, SW837, 72 h, read-out: Absolute IC50 (μM)
  IC50: > 10 µM
[7]; Homo sapiens, MIA PaCa-2, 72 h, read-out: Absolute IC50 (μM)
  IC50: > 10 µM
[7]; [26]
  inhibition at 0.0046 µM: -5.76%
  inhibition at 0.0137 µM: -10.3%
  inhibition at 0.0412 µM: -8.58%
  inhibition at 0.1235 µM: -9.5%
  inhibition at 0.3704 µM: -5.32%
  inhibition at 1.1111 µM: 1.46%
  inhibition at 3.3333 µM: 13.9%
  inhibition at 10 µM: 30.6%
[10]; Homo sapiens, NCI-H1373, 72 h, read-out: Absolute IC50 (μM)
  IC50: > 10 µM
[10]; [27]
  inhibition at 0.0046 µM: -3.29%
  inhibition at 0.0137 µM: -6.68%
  inhibition at 0.0412 µM: -5.53%
  inhibition at 0.1235 µM: -6.17%
  inhibition at 0.3704 µM: -5.69%
  inhibition at 1.1111 µM: -4.7%
  inhibition at 3.3333 µM: -9.75%
  inhibition at 10 µM: 8.28%
[11]; Homo sapiens, UMUC3, 72 h, read-out: Absolute IC50 (μM)
  IC50: > 10 µM
[12]
  inhibitory effect on cell proliferation (in words): substantial inhibitory effect
[13]; Homo sapiens, NCI-H1792, 72 h, read-out: Absolute IC50 (μM)
  IC50: > 10 µM
[13]; [28]
  inhibition at 0.0046 µM: -7.35%
  inhibition at 0.0137 µM: -1.4%
  inhibition at 0.0412 µM: 2.27%
  inhibition at 0.1235 µM: 6.64%
  inhibition at 0.3704 µM: 7.05%
  inhibition at 1.1111 µM: 12.2%
  inhibition at 3.3333 µM: 22.4%
  inhibition at 10 µM: 34%
